Test systems include UO-31; HOP-92; NCI-H226; HOP-62; NCI-H23; HCT-15; SK-MEL-5; COLO 205; KM12; Malme-3M; SK-OV-3; K562; SF-268; HL-60; HT-29; U-251; SNB-19; SK-MEL-2; SF-295; RXF 393.
Holding throughout (test): growth of human tumour cells (NCI), 48 h

Molecules are shown by their SMILES.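 Five compound concentrations were applied to cells in 96-well plates for 48 hours; endpoints were derived by simple linear interpolation of the resulting dose-response curve. GI50 = concentration required for 50% inhibition of growth.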 Active and inactive are the calls of the source. Rule as the data show it: active = GI50 up to about 1.1 µM and inactive = higher.

For `C/C(=N\NC(=O)c1ccncc1)c1cccc(C(F)(F)F)c1`, the GI50 with UO-31 was > 10 µM (inactive); with HOP-92 it was > 10 µM (inactive); in the assay on NCI-H226, > 10 µM (inactive); in the assay with HOP-62, > 10 µM (inactive); in the assay on NCI-H23 it was > 10 µM (inactive); with HCT-15 it was above 10 µM. For the same compound, the GI50 in the assay on SK-MEL-5, in the assay on COLO 205, in the assay with KM12, in the assay with Malme-3M, with SK-OV-3 and with K562 was > 10 µM (inactive) in each case. Moreover, the GI50 with SF-268, with HL-60, in the assay on HT-29 and with U-251 was > 10 µM (inactive) throughout.
Take `Nc1nncc2c1ccn2C1OC(CO)C(O)C1O` (stereo not drawn): the GI50 with SNB-19, in the assay on UO-31, in the assay with HOP-92, in the assay with NCI-H226, in the assay with HOP-62 and in the assay with SK-MEL-2 was > 100 µM (inactive) throughout. Also, the GI50 is > 100 µM (inactive) in the assay with NCI-H23; above 100 µM in the assay with HCT-15; > 100 µM (inactive) with SF-295; > 100 µM (inactive) in the assay on SK-MEL-5; > 100 µM (inactive) with COLO 205; > 100 µM (inactive) in the assay on KM12. In addition, the GI50 in the assay on Malme-3M, with SK-OV-3, in the assay with K562, in the assay with SF-268, in the assay with HL-60 and with RXF 393 was > 100 µM (inactive) each time. The GI50 in the assay on HT-29 and in the assay with U-251 was > 100 µM (inactive) each time.
With `N=C(N)c1csc([C@@H]2O[C@H](CO)[C@@H](O)[C@H]2O)n1`, the GI50 with SNB-19 is > 100 µM (inactive); in the assay with UO-31, > 100 µM (inactive); in the assay on NCI-H226, 89.5 µM (inactive); in the assay on SK-MEL-2, > 100 µM (inactive); with NCI-H23, > 100 µM (inactive); with HCT-15, above 100 µM. Besides, the GI50 with SF-295, with SK-MEL-5, in the assay on KM12, in the assay on Malme-3M, with SK-OV-3 and in the assay with K562 was > 100 µM (inactive) throughout. For the same compound, the GI50 in the assay with SF-268, in the assay with HL-60, in the assay with RXF 393 and in the assay with U-251 was > 100 µM (inactive) each time.
As to `O=S(=O)(/N=C(\NO)Nc1ccc(Cl)cc1)c1ccc(-c2ccccn2)s1`, the GI50 in the assay with SNB-19 is > 100 µM (inactive); in the assay on UO-31, 80.2 µM (inactive); in the assay with HOP-92 it was 27.4 µM (inactive); with NCI-H226, 90.8 µM (inactive); in the assay on HOP-62 it was 52.1 µM (inactive); in the assay on SK-MEL-2, 46 µM (inactive). The GI50 in the assay on NCI-H23 was 37.3 µM (inactive); in the assay on HCT-15, 39.7 µM; in the assay with SF-295, 52.1 µM (inactive); in the assay on SK-MEL-5, 31.4 µM (inactive); with COLO 205 it was 45.1 µM (inactive); in the assay on KM12, 86.9 µM (inactive). Besides, the GI50 in the assay with Malme-3M is 19.6 µM (inactive); in the assay on SK-OV-3, 56.1 µM (inactive); with K562 it was 50.2 µM (inactive); in the assay with SF-268, 35.7 µM (inactive); with HL-60 it was 24 µM (inactive); in the assay with RXF 393, 19 µM (inactive). The results for the GI50 with HT-29 and with U-251 were 82.8 µM (inactive) and 44.4 µM (inactive), respectively.
Regarding `CN(C)CCNC(=O)c1cccc2c1Nc1ccccc1S2`, the GI50 with SNB-19 was 9.75 µM (inactive); in the assay with UO-31 it was 10.1 µM (inactive); in the assay with HOP-92 it was 2.08 µM (inactive); with NCI-H226 it was 11.5 µM (inactive); with HOP-62, 15.7 µM (inactive); in the assay on SK-MEL-2, 16.3 µM (inactive). In addition, the GI50 was 14.6 µM (inactive) in the assay on NCI-H23; 16 µM with HCT-15; 14.5 µM (inactive) with SF-295; 13.2 µM (inactive) in the assay with SK-MEL-5; 11.8 µM (inactive) in the assay with COLO 205; 12.7 µM (inactive) in the assay on KM12. The GI50 in the assay on Malme-3M was 14.8 µM (inactive); with SK-OV-3, 16.1 µM (inactive); in the assay on K562, 14.9 µM (inactive); in the assay with SF-268, 15.8 µM (inactive); with HL-60, 5 µM (inactive); with RXF 393, 9.35 µM (inactive). For the same compound, the GI50 in the assay with HT-29 is 11.7 µM (inactive); with U-251 it was 13.7 µM (inactive).
Regarding `C=CNC(=S)n1nc(-c2ccccc2NC(=O)C(F)(F)F)c(=O)n(C(=S)NC=C)c1=S`, the GI50 in the assay with SNB-19 is 28.6 µM (inactive); with UO-31, 13.9 µM (inactive); in the assay with HOP-92, 10.5 µM (inactive); in the assay with NCI-H226 it was 21.2 µM (inactive); in the assay with HOP-62 it was 29.6 µM (inactive); with SK-MEL-2 it was 73.3 µM (inactive). Moreover, the GI50 was 26.7 µM (inactive) in the assay with NCI-H23; 16.4 µM in the assay with HCT-15; 19.2 µM (inactive) in the assay with SF-295; 13.3 µM (inactive) with SK-MEL-5; > 10 µM (inactive) in the assay with COLO 205; 29.3 µM (inactive) in the assay with KM12. Besides, the GI50 in the assay with Malme-3M was 56.2 µM (inactive); with SK-OV-3, 30.3 µM (inactive); in the assay with K562, 18.1 µM (inactive); with SF-268, 15.4 µM (inactive); with RXF 393, 73.6 µM (inactive); in the assay on HT-29, 18.6 µM (inactive). Besides, the GI50 in the assay with U-251 was 34.9 µM (inactive).
As to `CCOC(=O)NC(=O)c1cn(C2CCCCC2)c(=O)n(C)c1=O`, the GI50 in the assay on SNB-19, in the assay with UO-31, in the assay on HOP-92, in the assay with NCI-H226, in the assay with HOP-62 and in the assay with SK-MEL-2 was > 100 µM (inactive) throughout. The GI50 was > 100 µM (inactive) in the assay on NCI-H23; above 100 µM with HCT-15; > 100 µM (inactive) with SF-295; > 100 µM (inactive) in the assay with SK-MEL-5; > 100 µM (inactive) in the assay with COLO 205; > 100 µM (inactive) in the assay on KM12. Further, the GI50 in the assay with Malme-3M, in the assay with SK-OV-3, with K562, in the assay with SF-268, in the assay on HL-60 and in the assay on RXF 393 was > 100 µM (inactive) in each case. The GI50 in the assay with HT-29 and with U-251 was > 100 µM (inactive) each time.
Regarding `CC1=NN(C(=O)c2ccccc2)C(=O)C1/N=N/c1ccccc1C(=O)O` (stereo not drawn), the GI50 with SNB-19 was 5.75 µM (inactive); in the assay with UO-31, 3.75 µM (inactive); in the assay with HOP-92, 4.11 µM (inactive); with NCI-H226, 9.46 µM (inactive); in the assay on HOP-62, 6.15 µM (inactive); with SK-MEL-2, 6.21 µM (inactive). Moreover, the GI50 in the assay on NCI-H23 is 3.81 µM (inactive); in the assay on HCT-15, 4.85 µM; with SF-295, 4.1 µM (inactive); with SK-MEL-5, 34 µM (inactive); with COLO 205, > 72.6 µM (inactive); in the assay with KM12, 7.8 µM (inactive). Moreover, the GI50 was 10.9 µM (inactive) in the assay on Malme-3M; > 25.2 µM (inactive) with SK-OV-3; 2.54 µM (inactive) in the assay with K562; 9.79 µM (inactive) in the assay on SF-268; 3.53 µM (inactive) in the assay with HL-60; 2.47 µM (inactive) in the assay on RXF 393. The GI50 with HT-29 was 52.1 µM (inactive); in the assay with U-251, 4.79 µM (inactive).
For the compound `CCOC(=O)/C=C(\C)c1ccc(C)cc1C`, the GI50 in the assay on SNB-19 is > 100 µM (inactive); in the assay on UO-31 it was > 100 µM (inactive); in the assay on HOP-92, 29.8 µM (inactive); in the assay on NCI-H226, > 100 µM (inactive); with SK-MEL-2 it was 45.2 µM (inactive); in the assay on NCI-H23, 45.4 µM (inactive). For the same compound, the GI50 in the assay on HCT-15 is 29.9 µM; in the assay on SF-295, > 100 µM (inactive); in the assay on SK-MEL-5, 34.3 µM (inactive); in the assay on COLO 205, > 100 µM (inactive); with KM12, 72.3 µM (inactive); in the assay on Malme-3M it was 26.1 µM (inactive). Further, the GI50 in the assay on K562 was 45.1 µM (inactive); with SF-268, > 100 µM (inactive); in the assay on HL-60 it was 2.89 µM (inactive); in the assay with RXF 393, 14.4 µM (inactive); in the assay on HT-29 it was > 100 µM (inactive); in the assay with U-251 it was > 100 µM (inactive).
For `CNC(=O)OCc1nc(SC)n(C)c1CO`, the GI50 in the assay on SNB-19 is > 100 µM (inactive); with UO-31, > 100 µM (inactive); in the assay with HOP-92 it was > 100 µM (inactive); with NCI-H226, > 100 µM (inactive); with HOP-62, > 100 µM (inactive); in the assay with SK-MEL-2 it was > 46.9 µM (inactive). For the same compound, the GI50 was > 100 µM (inactive) in the assay on NCI-H23; above 100 µM with HCT-15; > 100 µM (inactive) with SF-295; > 100 µM (inactive) with SK-MEL-5; > 100 µM (inactive) in the assay on COLO 205; > 100 µM (inactive) in the assay on KM12. The GI50 was 1.68 µM (inactive) in the assay with Malme-3M; > 100 µM (inactive) with SK-OV-3; > 100 µM (inactive) with K562; > 100 µM (inactive) in the assay on SF-268; > 100 µM (inactive) in the assay with HL-60; > 100 µM (inactive) in the assay on RXF 393. Also, the GI50 in the assay with HT-29 and with U-251 was > 100 µM (inactive) in each case.
On to `O=C1CC2(CCC(O)(c3ccccc3)C(C(=O)c3ccccc3)C2)C(=O)c2ccccc2N1` (stereo not drawn), for which the GI50 in the assay with SNB-19 is > 100 µM (inactive); in the assay with UO-31 it was > 100 µM (inactive); in the assay with HOP-92, 93.5 µM (inactive); in the assay on NCI-H226, > 100 µM (inactive); in the assay on HOP-62, > 100 µM (inactive); in the assay with SK-MEL-2, > 100 µM (inactive). Also, the GI50 was > 100 µM (inactive) in the assay with NCI-H23; above 100 µM with HCT-15; > 100 µM (inactive) in the assay on SF-295; > 100 µM (inactive) in the assay on SK-MEL-5; > 100 µM (inactive) in the assay on COLO 205; > 100 µM (inactive) in the assay with Malme-3M. Besides, the GI50 in the assay on SK-OV-3, in the assay on K562, in the assay on SF-268, with HL-60, with RXF 393 and in the assay with HT-29 was > 100 µM (inactive) each time. Moreover, the GI50 in the assay with U-251 is > 100 µM (inactive).
